Measurements from patent US11992517B2, “Compositions and methods for promoting the mineralization of biological tissue” (NEW YORK SOCIETY FOR THE RUPTURED AND CRIPPLED MAINTAINING …, priority 2013, dated 2024).

Legend:
ENPP1 = test: RT-PCR of ENPP after IL-1β treatment; type: cell-based, bovine; details: IL-1β 0.01 and 2 ng/ml; naïve cells and TNAP-infected BNP cells; day 3; FIG. 23
Description: (§1) Cells from Example 2 were grown in mineralization medium in the presence or absence of a low dose of […] (0.01 ng/ml) or a high dose (2 ng/ml) (R&D Systems). Cells were analyzed by Alizarin Red staining at 7 and 10 days as previously described. RT-PCR analysis of ANK and ENPP was also performed as previously described, using primers specific for ANKH and ENPP1.

BNP cells = test: Effect of IL-1β on mineralization, Alizarin Red staining; type: cell-based, bovine; details: IL-1β 0.01 and 2 ng/ml, 7 and 10 days
Description: as §1

ANKH = test: RT-PCR of ANK after IL-1β treatment; type: cell-based, bovine; details: IL-1β 0.01 and 2 ng/ml; naïve cells and TNAP-infected BNP cells; day 3; FIG. 23
Description: as §1

bovine NP cells = test: Effect of TNF-α on mineralization, Alizarin Red and von Kossa staining; type: cell-based
Description: The cells from Example 2 (TNAP infected and naïve) were grown in high density cultures in a medium comprising DMEM high glucose (4.5 g/L) plus 1% PenStrep, and 10% FBS, and 50 μ/ml ascorbic acid, and 5 mM of β-glycerophosphate (mineralization medium). Some cells were also stimulated with 10 ng/mL of hfTNF-α.
The cells were stained with Alizarin Red and von Kossa stain after 7, 14, and 21 days.

Row | Substance | ENPP transcripts (ENPP1) | Alizarin Red staining of NP cells transduced with LacZ (BNP cells) | calcium staining with Alizarin Red of TNAP-infected BNP cell cultures (BNP cells; mineralization medium, FIGS. 21, 22) | ANK transcripts (ANKH) | mineralization of NP cells stimulated with TNF-α only (bovine NP cells; 10 ng/mL TNF-α, cells without TNAP) | staining of TNAP infected cells stimulated with TNF-α (bovine NP cells; 10 ng/mL TNF-α, versus unstimulated TNAP infected cells, FIG. 10) | more Alizarin Red staining than TNAP alone (bovine NP cells; TNAP overexpressing cells stimulated with TNF-α, average over three weeks, FIG. 11) [%]
1 | IL-1β: interleukin 1β (R&D Systems) added at 0.01 or 2 ng/ml | dose-dependent decrease | no observable change | dose-dependent increase | dose-dependent decrease |  |  | 
2 | TNF-α |  |  |  |  | did not show mineralization | darker | 45
